# Measured values: patent EP2601945A1 (Thomale, Jürgen, priority 2011, dated 2013)
# Entries after “also recorded” stand apart in the source; their conditions may differ.
# Assays:
# [1] = test system: outer hair cells and stria vascularis marginal cells; assay: Electron microscopy of cochlear cell micromorphology; type: in vivo, mice; conditions: four times
# [2] = test system: K-rasG12D -induced lung tumors; assay: Tumor growth in the K-ras mouse model of NSCLC (H&E lung sections, Bioquant image analysis); type: in vivo, mice; conditions: for tumor number: not statistically significant
# Excerpt: (§1) Oncogenic mutations in the gene encoding the small GTPase K-ras are among the most frequently detected alterations in human lung cancer and approximately 30 % of all cases of human non-small cell lung cancer (NSCLC) carry such an activated K-ras allele with mutations predominantly located in codons 12, 13 or 61. Based on this observation a mouse model for NSCLC was recently established (Sweet-Cordero et al., 2004). The local activation of a silent transgenic K-rasG12D allele in these mice is achieved by intratracheal adenoviral transfection with the Cre recombinase (AdCre). The Cre recombinase cuts out a "stop" cassette and allows for expression of the oncogenic K-ras protein in transfected lung cells.
# A cohort of tumor-bearing mice was randomly divided into three subgroups receiving different treatment regimens. Group one (mock treatment control) received i.p. injections once per week with PBS for 4 weeks. […] Mice were sacrificed 5 days after the last dose; lungs were dissected and prepared for paraffin sections. Following H&E staining for morphological structures, the percentage tumor burden, the number of tumors per lung and the average tumor size was determined microscopically (Figure 13 B-D, 14). […] For quantitative analysis the Bioquant image analysis software was used to blindly and randomly quantify the area of all lung tumors and the total lung surface area in 4 lung sections per mouse.
# [3] = test system: Pt-GG adducts in DNA of lung tumor cells; assay: ICA of Pt-GG adducts in primary lung tumor cells; type: in vivo, mice
# Excerpt: as §1, with “cells. When the initiation is performed at the age of 8 weeks, mice are diagnosed 16 weeks later with lung tumors at 100 % penetrance. The morphology and molecular characteristics of the tumors are very similar to human NSCLC and they respond with regression to chemotherapy with cis-platin.” for “cells.”
# Mice bearing K-rasG12D -induced lung tumors were divided into two groups for acute high dose and for chronic low dose treatment. Animals received mocktreatment with PBS or cis-platin alone or cis-platin plus treatment with DPH. […] All mice were sacrificed 24 hours after the last treatment and cochleae, kidneys and lungs were resected for analysis of DNA adduct accumulation.
# [4] = test system: hearing capability; assay: BAER hearing test after repetitive cis-platin with or without DPH, or DPH alone
# Description: Both groups received additional i.p. injections with saline solution (500 µl) in order to protect the mice from kidney injury. […] Like in the clinical BAER tests for humans, the hearing threshold was determined as the disappearance of wave V. This value was converted into percentage of hearing capability as compared to the untreated controls (dB to %). […] The mean value of the untreated mice was set as 100 %.
# [5] = cis-platin 7 mg/kg once per week for 4 weeks, DPH 57 mg/kg
# [6] = cis-platin in combination with DPH (57 mg/kg 30 minutes before each dose)
# [7] = cis-platin alone (7 mg/kg once per week for 4 weeks)
Compound,micromorphology of outer hair cells and marginal cells ([1]; DPH alone 57 mg/kg every second day),micromorphology of outer hair cells and marginal cells ([1]; cis-platin 5 mg/kg plus DPH 57 mg/kg every second day),"average tumor size, cis-platin alone versus cis-platin plus inhibitor group [2, 5]","mean tumor burden in the lung, cis-platin alone versus in combination with DPH [2, 5]","reduction of average tumor size [2, 6]","reduction of tumor burden [2, 6]",tumor number ([2]; cis-platin plus DPH versus PBS),"reduction of Pt-GG levels in lung tumor cells by DPH co-treatment ([3]; DPH 57 mg/kg 30 minutes prior to cis-platin, acute 10 mg/kg or chronic 4 x 5 mg/kg)","hearing ability throughout the experiment ([4]; DPH alone 57 mg/kg repetitively, no cis-platin)","hearing sensitivity 24 hours later ([4]; DPH alone, single dose 57 mg/kg, BAER repeated 24 hours later)",hearing loss ([4]; cis-platin cumulated dose 20 mg/kg in combination with DPH 57 mg/kg 30 minutes before each dose) [%],"mean hearing capability, percentage of untreated controls ([4]; cis-platin cumulated dose 40 mg/kg plus DPH 57 mg/kg before each dose)",micromorphology of outer hair cells and marginal cells ([1]; cis-platin alone 5 mg/kg every second day),"reduction of average tumor size [2, 7]","reduction of tumor burden [2, 7]",tumor number ([2]; cis-platin alone versus PBS),"adduct levels in lung tumor cells, repetitive treatment compared to single high dose treatment ([3]; cis-platin 4 x 5 mg/kg every second day versus 10 mg/kg once)","hearing capability, percentage of controls ([4]; cis-platin alone 5 mg/kg every second day, cumulated dose 20 mg/kg, BAER 24 h after last treatment)","reduction of hearing capacity (BAER) ([4]; cis-platin treatment alone, mice (description))"
"CN(C)CCOC(c1ccccc1)c1ccccc1 [DPH, diphenhydramine]",No signs of autophagy or necrosis,much less frequent and properly shaped; also recorded: rare autophagosome-like structures,no difference,no significant difference,about 50%,about 80%,reduced,no reduction,did not show any difference,regained their normal hearing sensitivity,20,about 70%,,,,,,,
"N.N.[Cl][Pt][Cl] [cis-platin, cis-diaminedichloro-platinum(II)]",,,,,,,,,,,,,necrotic cell death,about 50%,about 80%,reduced,about two-fold higher,about 50%,about 45%
